# According to patent US20070196848A1, “DETECTION OF PHOSPHORYLATED eIF2-alpha AS A DIAGNOSTIC TEST FOR EFFICACY AND SENSITIVITY OF TRANSLATION INITIATION INHIBITORS IN THE TREATMENT OF CANCER AND OTHER PROLIFERATIVE DISEASES” (priority 2004, published 2007):
# Legend:
# BRCA1 = BRCA1 expression in MCF-7 breast cancer cells; assay type: cell-based, human; conditions: MCF-7 cells, dose-dependent
# Excerpt: (§1) FIGS. 4A-4C depict dose-dependent up-regulation of BRCA1 in MCF-7 breast cancer cells by EPA (A) and CLT (B). Upper bands, BRCA1; lower bands, actin.
# (§2) MCF-7 breast cancer cells, known to have very low levels of BRCA1 protein, were exposed to CLT and EPA. […] To confirm that up-regulation of BRCA1 was at the level of translation, the 5′ UTRs of either BRCA1 mRNAa or mRNAb were placed in front of the firefly luciferase reporter gene using in both cases renilla luciferase as an internal control. These constructs were transfected into MCF-7 breast cancer cells. […] Without intending to be bound by theory, these experiments indicate that the inhibitors of translation initiation that induce phosphorylation of eIF2α restrict the availability of the ternary complex to translationally up-regulate the tumor suppressor gene BRCA1, a critical player in many types of sporadic breast and ovarian cancers.
# 5′ UTR of BRCA1 mRNA = test: firefly luciferase reporter with 5′ UTR of BRCA1 mRNAa or mRNAb in MCF-7 cells; assay type: cell-based, human; conditions: renilla luciferase internal control
# Excerpt: as §1, §2
# HTB-174 = test: sulfarodamine B cell growth assay (SRB); assay type: cell-based; conditions: Homo sapiens; HTB-174, Lung
# Excerpt: The effect of EPA on the proliferation of a panel of cancer cell lines representative of most common human cancers was studied using the sulfarodamine B cell growth assay (SRB).
# eIF2α phosphorylation = test: immunoblot with anti-S51-P-eIF2α-specific antibody in DU-145 cells; assay type: cell-based, human; conditions: two hours
# Procedure: To investigate whether depletion of Ca^++ stores by EPA causes activation of eIF2α kinases and phosphorylation of eIF2α in prostate cancer cells, DU-145 cells were incubated with or without increasing concentrations of EPA for two hours.
# [1] = system: DU-145 cells transfected with eIF2αWT; test: cell cycle distribution of GFP expressing cells by FACS; assay type: cell-based, human; conditions: WT, GFP-expressing DU-145 cells
# Procedure: (§3) FIG. 10 depicts cell cycle inhibition by EPA that is dependent on eIF2α phosphorylation. DU-145 human prostate cancer cell lines were transiently transfected with eIF2α-51A-GFP or eIF2α-WT-GFP plasmids, treated with EPA or vehicle, stained with propidium iodide and cell cycle distribution of GFP transfected cells was determined.
# (§4) eIF2α51A is a […] non-phosphorylatable mutant of eIF2α in which serine 51 has been replaced by alanine (FIG. 9). To confirm that eIF2α phosphorylation is also critical for EPA-mediated inhibition of cell proliferation in prostate cancer cells, DU-145 cells were transiently transfected with a construct that co-expresses the fluorescent marker GFP with either eIF2αWT (i.e., eIF2α wild-type) or eIF2α51A. These cells were treated with either EPA or vehicle DMSO, and the cell cycle distribution of GFP expressing cells was determined by FACS analysis.
# [2] = system: DU-145 cells transfected with eIF2α51A; test: as above; assay type: cell-based, human; conditions: 51A, GFP-expressing DU-145 cells
# Procedure: as §3, §4
# [3] = system: PC-3 human prostate tumors; test: orthotopic xenograft model of human prostate cancer, survival; assay type: in vivo, mouse; conditions: PC-3 orthotopic, gavage 2.5 grams/kilogram/day
# Excerpt: FIGS. 14A-14F depict the effect of EPA on xenograft cancer models. (A) EPA increased the mean survival time in an orthotopic model of PC-3 human prostate tumors (left, corn oil; right, EPA). (B) EPA reduced tumor growth in an orthotopic syngenic model of KLN mouse squamous cell carcinoma (5 weeks) (left, corn oil; right, EPA). (C) EPA induced phosphorylation of eIF2α in the KLN tumors (left, corn oil; middle, EPA1;
# Human PC-3 prostate cancer cells stably transfected with the GFP fluorescent marker were implanted into mouse prostate glands and tumors were allowed to establish. Mice with tumors detectable by whole body fluorescent scanning were treated with EPA or corn oil, orally administered by gavage (2.5 grams/kilogram/day).
# p53^−/− mice = system: p53^−/− mice
# Excerpt: p53 is the most commonly mutated gene in human cancers. The anti-cancer activity of EPA was investigated in p53^−/− mice, which develop a wide variety of spontaneous tumors with 100% penetrance and die from cancer within 50 weeks of age. Age and sex matched animals were randomly distributed to treatment (2.5 grams/kilogram EPA) or control (2.5 grams/kilogram corn oil) administered daily by gavage.
# MCF-7 = test: sulfarodamine B cell growth assay (SRB); assay type: cell-based; conditions: Homo sapiens, MCF7; MCF-7, Breast
# Excerpt: (§5) The effect of EPA on the proliferation of a panel of cancer cell lines representative of most common human cancers was studied using the sulfarodamine B cell growth assay (SRB). EPA inhibited the proliferation of all cancer cell lines tested, including androgen dependent and androgen independent prostate cancer cell lines (LNCaP, PC-3 and DU-145) in a dose dependent manner (Table 1: effect of EPA on human cancer cello growth).
# HCT-15 = test: sulfarodamine B cell growth assay (SRB); assay type: cell-based; conditions: Homo sapiens; HCT-15, Colon
# Excerpt: as §5
# SK-Mel-28 = test: sulfarodamine B cell growth assay (SRB); assay type: cell-based; conditions: Homo sapiens; SK-Mel-28, Skin
# Excerpt: as §5
# SK-OV3 = test: sulfarodamine B cell growth assay (SRB); assay type: cell-based; conditions: Homo sapiens, SK-OV-3; SK-OV3, Ovary
# Excerpt: as §5
# ACHN = test: sulfarodamine B cell growth assay (SRB); assay type: cell-based; conditions: Homo sapiens, Kidney
# Excerpt: as §5
# Hep-G2 = test: sulfarodamine B cell growth assay (SRB); assay type: cell-based; conditions: Homo sapiens, HepG2; Hep-G2, Liver
# Excerpt: as §5
# HeLa = test: sulfarodamine B cell growth assay (SRB); assay type: cell-based; conditions: Homo sapiens, Cervix
# Excerpt: as §5
# DU-145 = test: sulfarodamine B cell growth assay (SRB); assay type: cell-based; conditions: Homo sapiens; DU-145, Prostate
# Excerpt: as §5
# HT-29 = test: sulfarodamine B cell growth assay (SRB); assay type: cell-based; conditions: Homo sapiens; HT-29, Colon
# Excerpt: as §5
# LNCaP = test: sulfarodamine B cell growth assay (SRB); assay type: cell-based; conditions: Homo sapiens, Prostate
# Excerpt: as §5
# A549 = test: sulfarodamine B cell growth assay (SRB); assay type: cell-based; conditions: Homo sapiens; A549, Lung
# Excerpt: as §5
# PC-3 = test: sulfarodamine B cell growth assay (SRB); assay type: cell-based; conditions: Homo sapiens; PC-3, Prostate
# Excerpt: as §5
# MMRU = test: sulfarodamine B cell growth assay (SRB); assay type: cell-based; conditions: Homo sapiens, Skin
# Excerpt: as §5
# Caski-1 = test: sulfarodamine B cell growth assay (SRB); assay type: cell-based; conditions: Homo sapiens; Caski-1, Cervix
# Excerpt: as §5
# MDAMB231 = test: sulfarodamine B cell growth assay (SRB); assay type: cell-based; conditions: Homo sapiens, MDA-MB-231; MDAMB231, Breast
# Excerpt: as §5
# U-118 MG = test: sulfarodamine B cell growth assay (SRB); assay type: cell-based; conditions: Homo sapiens, Glioblastoma
# Excerpt: as §5
smiles,measurement,setting,value
"Clc1ccccc1C(c1ccccc1)(c1ccccc1)n1ccnc1 [CLT, clotrimazole]",up-regulation of BRCA1,BRCA1,significant up-regulation of BRCA1
same,translation of reporter fused to 5′ UTR of BRCA1 mRNAb,5′ UTR of BRCA1 mRNA,significantly up-regulated translation
"CC/C=C\C/C=C\C/C=C\C/C=C\C/C=C\CCCC(=O)O [EPA, eicosapentaenoic acid]",IC50,HTB-174,79 µM
same,increase in eIF2α phosphorylation,eIF2α phosphorylation,approximately 10 fold
same,% G1,[1],67%
same,% G2/M,[1],14%
same,% S,[1],19%
same,% G1,[2],48%
same,% G2/M,[2],21%
same,% S,[2],31%
same,longer mean survival time than corn oil,[3],50%
same,mean survival time,[3],38 ± 5 days
same,sign of toxicity,"p53^−/− mice; mouse, in vivo",Neither control nor EPA treated animals showed any sign of toxicity
same,mean survival time (Kaplan-Meier),p53^−/− mice; oral 2.5 grams/kilogram/day from four weeks of age,385 ± 12 days
same,IC50,MCF-7,43 µM
same,IC50,HCT-15,47 µM
same,IC50,SK-Mel-28,46 µM
same,IC50,SK-OV3,96 µM
same,IC50,ACHN,62 µM
same,IC50,Hep-G2,24 µM
same,IC50,HeLa,10 µM
same,IC50,DU-145,36 µM
same,IC50,HT-29,72 µM
same,IC50,LNCaP,18 µM
same,IC50,A549,54 µM
same,IC50,PC-3,20 µM
same,IC50,MMRU,36 µM
same,IC50,Caski-1,76 µM
same,IC50,MDAMB231,37 µM
same,IC50,U-118 MG,36 µM
